# Values quoted from earlier work as cited in patent US20110230399A1, “Methods for Treating Obesity Related Disease” (priority 2008, published 2011).
# Assays:
# [1] = in vivo
# [2] = system: hypothalamic slices; settings: in vitro
substance,measurement,setting,value
NPY13-36: Neuropeptide Y fragment 13-36; full agonist at the Y2 receptor,stimulation of food intake,[1],does not stimulate food intake
same,NPY release from hypothalamic slices,[2],inhibits NPY release
